Consider 15 compounds from ChEMBL document CHEMBL3217428, “Synthesis and evaluation of novel 5-sulfonyl-indolin-2-ones as potent cytotoxic agents” (Medchemcomm, 2011).

Calls of active or inactive are those of the source. The calls are words filed in the database; no cut-off is given here. Some results are limits rather than exact numbers.

The test system of experiment [1] is A549. Briefly: Cytotoxicity against human A549 cells. It is filed as functional, cell-based.
Experiment [2] can be described thus: Cytotoxicity against human SGC7901 cells. It counts as functional, cell-based. The note with it: SGC-7901.
A short description of experiment [3]: Cytotoxicity against human ECA109 cells. It counts as functional, cell-based. The note with it: ECa-109.
For the next experiment, the system named is HCT-116. Briefly: Cytotoxicity against human HCT116 cells. It is filed as functional, cell-based.
In experiment [4] the target is Fibroblast growth factor receptor 2 (Homo sapiens) (UniProt P21802). Briefly: Inhibition of FGFR2 (unknown origin) at 50 uM.
Chain of Fibroblast growth factor receptor 2 (Homo sapiens) (P21802 22-821 limits assumed): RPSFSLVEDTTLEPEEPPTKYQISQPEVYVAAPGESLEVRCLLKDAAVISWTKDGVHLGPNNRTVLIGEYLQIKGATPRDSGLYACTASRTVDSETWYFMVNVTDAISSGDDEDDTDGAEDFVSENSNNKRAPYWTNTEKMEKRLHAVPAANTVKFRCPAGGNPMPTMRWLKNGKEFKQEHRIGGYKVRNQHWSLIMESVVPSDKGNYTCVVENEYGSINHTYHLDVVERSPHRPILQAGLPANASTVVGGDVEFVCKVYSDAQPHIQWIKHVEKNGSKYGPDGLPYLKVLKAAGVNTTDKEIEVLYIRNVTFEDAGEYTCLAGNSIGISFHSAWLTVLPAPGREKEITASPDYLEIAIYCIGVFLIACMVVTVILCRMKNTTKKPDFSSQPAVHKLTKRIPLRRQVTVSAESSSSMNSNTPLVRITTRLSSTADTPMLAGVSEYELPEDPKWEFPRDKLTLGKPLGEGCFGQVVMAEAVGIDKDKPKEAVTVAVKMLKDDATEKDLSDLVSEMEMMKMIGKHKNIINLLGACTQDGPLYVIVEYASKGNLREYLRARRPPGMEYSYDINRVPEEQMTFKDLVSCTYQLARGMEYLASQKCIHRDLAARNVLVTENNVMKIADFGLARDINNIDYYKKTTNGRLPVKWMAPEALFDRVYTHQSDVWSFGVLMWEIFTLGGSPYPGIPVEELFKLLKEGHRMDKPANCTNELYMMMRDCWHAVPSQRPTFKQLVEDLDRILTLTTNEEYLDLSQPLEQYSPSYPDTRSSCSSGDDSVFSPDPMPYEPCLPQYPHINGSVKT
Experiment [5] deals with A549. Briefly: Induction of apoptosis in human A549 cells assessed as DNA fragmentation at 1.25 to 5 uM after 72 hrs by flow cytometry. It counts as functional, cell-based.
For experiment [6], the system named is A549. Briefly: Induction of apoptosis in human A549 cells assessed as hypodiploid DNA at 5 uM after 72 hrs by flow cytometry. It counts as functional, cell-based.
Experiment [7] concerns A549. Briefly: Cell cycle arrest in human A549 cells assessed as accumulation at sub-G0/G1 phase at 5 uM after 72 hrs by flow cytometry. It is filed as functional.
Experiment [8] deals with HUVEC. Briefly: Antiangiogenic activity in HUVEC assessed as reduction in tube formation by matrigel assay. It is filed as functional, cell-based. The note with it: Homo sapiens.
Experiment [9] deals with HUVEC. Briefly: Antiangiogenic activity in HUVEC assessed as reduction in anastomoses formation by matrigel assay. The note with it: Homo sapiens. It counts as functional, cell-based.
Experiment [10] has as its system HUVEC. Briefly: Antimigratory activity in HUVEC at 2 uM. The note with it: Homo sapiens. It counts as functional, cell-based.
The subject of experiment [11] is A549. Briefly: Induction of apoptosis in human A549 cells at 5 uM after 72 hrs by flow cytometry. It is filed as functional.

Take `CCN(CC)CCNC(=O)c1c(C)[nH]c(/C=C2\C(=O)Nc3ccc(/C=C/S(=O)(=O)Cc4ccc(Cl)cc4)cc32)c1C`: the IC50 in the experiment on A549 [1] was above 25.3 µM; in experiment [2] it was above 25 µM; in [3] it was above 25 µM; in the experiment with HCT-116, above 25 µM.
Consider `CCN(CC)CCNC(=O)c1c(C)[nH]c(/C=C2\C(=O)Nc3ccc(/C=C/S(=O)(=O)c4ccc(F)cc4)cc32)c1C`, for which the inhibition result was “Dose-dependent effect” with A549 [1] and 76.6% in experiment [4]. The IC50 in [2] was 6.87 µM; in experiment [3], 5.74 µM; with HCT-116 it was 1.82 µM. Besides, the result in the experiment with A549 [5], in the experiment with A549 [6] and in the experiment with HUVEC [10] was Active. The Activity is 68.21% in the experiment on A549 [7], “Dose-dependent effect” in the experiment on HUVEC [8] and “Dose-dependent effect” in the experiment on HUVEC [9].
For the compound `CCN(CC)CCNC(=O)c1c(C)[nH]c(/C=C2\C(=O)Nc3ccc(/C=C/S(=O)(=O)Cc4ccc(F)cc4)cc32)c1C`, the IC50 (in the experiment with A549 [1]; in experiment [2]; in [3]; with HCT-116) was above 12.5 µM throughout.
For the compound `CCN(CC)CCNC(=O)c1c(C)[nH]c(/C=C2\C(=O)Nc3ccc(/C=C/S(=O)(=O)c4ccccc4)cc32)c1C`, the IC50 was determined as 6.86 µM in the experiment with A549 [1], 5.82 µM in experiment [2], 2.7 µM in [3] and 6.44 µM with HCT-116.
Consider `CCN(CC)CCNC(=O)c1c(C)[nH]c(/C=C2\C(=O)Nc3ccc(/C=C/S(C)(=O)=O)cc32)c1C`, for which the IC50 with A549 [1] was 29.1 µM; in [2], 16.7 µM; in [3], 12.5 µM; in the experiment on HCT-116, 2.64 µM.
In the case of `CCN(CC)CCNC(=O)c1c(C)[nH]c(/C=C2\C(=O)Nc3ccc(/C=C/S(=O)(=O)Cc4cccc(F)c4)cc32)c1C`, the IC50 in the experiment on A549 [1] amounted to 8.41 µM; in [2], 11.1 µM; in [3], 7.33 µM; in the experiment with HCT-116 it was 12.7 µM.
Regarding `CCN(CC)CCNC(=O)c1c(C)[nH]c(/C=C2\C(=O)Nc3ccc(/C=C/S(=O)(=O)c4ccc(Br)cc4)cc32)c1C`, the half-maximal inhibitory concentration (IC50) with A549 [1] worked out at 5.21 µM; in [2], 2.28 µM; in [3], 6.23 µM; in the experiment with HCT-116, 3.35 µM. The inhibition in experiment [4] stood at 67.8%.
For the compound `Cc1[nH]c(/C=C2\C(=O)Nc3ccc(/C=C/S(=O)(=O)c4ccc(F)cc4)cc32)c(C)c1C(=O)NCCCN(C)C`, the concentration for half-maximal inhibition (IC50) was above 12.5 µM with A549 [1], 6.35 µM in experiment [2], 2.87 µM in experiment [3] and 9.84 µM in the experiment with HCT-116.
Turning to `Cc1[nH]c(/C=C2\C(=O)Nc3ccc(/C=C/S(=O)(=O)c4ccc(F)cc4)cc32)c(C)c1C(=O)NCCN(C)C`, the half-inhibitory concentration (IC50) in the experiment on A549 [1] was 6.62 µM; in [2] it was 6.25 µM; in experiment [3] it was 2.99 µM; with HCT-116, 7.2 µM.
The like results for `CCN(CC)CCCNC(=O)c1c(C)[nH]c(/C=C2\C(=O)Nc3ccc(/C=C/S(=O)(=O)c4ccc(F)cc4)cc32)c1C` were, in that order, above 12.5 µM, 3.45 µM, 4.75 µM and 5.77 µM.
In the case of `CCN(CC)CCNC(=O)c1c(C)[nH]c(/C=C2\C(=O)Nc3ccc(S(=O)(=O)/C=C/c4ccc(Cl)cc4)cc32)c1C`, the 50% inhibitory concentration (IC50) in the experiment on A549 [1] turned out to be 2.85 µM; in [2] it was 2.58 µM; in [3] it was 4.84 µM; in the experiment on HCT-116 it was 1.95 µM. This compound also returned an inhibition in experiment [4] of 72%.
Regarding `CCN(CC)CCNC(=O)c1c(C)[nH]c(/C=C2\C(=O)Nc3ccc(S(=O)(=O)/C=C/c4ccccc4)cc32)c1C`, the 50% inhibitory concentration (IC50) in the experiment with A549 [1] is 2.87 µM; in [2], 4.99 µM; in experiment [3] it was 1.37 µM; in the experiment with HCT-116, 2.41 µM.
For the compound `CCN(CC)CCNC(=O)c1c(C)[nH]c(/C=C2\C(=O)Nc3ccc(F)cc32)c1C` [SUNITINIB], the IC50 in the experiment on A549 [1] came to 18.6 µM; in [2], 18.6 µM; in [3], 16.9 µM; with HCT-116 it was 2.11 µM. The inhibition in [4] turned out to be 61.8%. In addition, the values for the Activity with A549 [11], with HUVEC [8] and with HUVEC [9] were 15.81%, “Dose-dependent effect” and “Dose-dependent effect”, respectively.
Turning to `O=c1c(O)c(-c2ccc(O)c(O)c2)oc2cc(O)cc(O)c12`, in experiment [4], the inhibition was found to be 67.3%.
`CCN(CC)CCNC(=O)c1c(C)[nH]c(/C=C2\C(=O)Nc3ccc(/C=C/S(=O)(=O)Cc4ccccc4)cc32)c1C`: the IC50 in the experiment on A549 [1] came out at 8.05 µM; in [2], 14.5 µM; in experiment [3] it was 10.6 µM; in the experiment on HCT-116 it was 13.7 µM.
